Laboratory results reported in patent US20230131899A1, “INHIBITORS OF MICROBIALLY INDUCED AMYLOID” (Axial Therapeutics, Inc., priority 2020, published 2023).
Read-outs that look alike come from different tables or passages of the source.

Target: T1, E. coli CsgA (Escherichia coli, UniProt P28307)
T1 construct: made in house; host or cells: E. coli NEB 3016 slyD::kan, pET11d
Assay: In vitro ThioflavinT assay of CsgA aggregation (CsgA ThT Assay)
Assay type: biochemical
Conditions: 1005 minutes; for remaining activity at 25 µM: compound 25 μM; for remaining activity at 100 µM: compound 100 μM
In short: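 Purified C-terminal His-tagged CsgA, monomerised by desalting and 30-kDa filtration, at 2-20 μM with 20-40 μM ThT in 50 mM potassium phosphate pH 7.3, 1% DMSO, compounds 3.125-200 uM; room temperature, fluorescence (ex 438/em 495 nm) read every 15 min. Background-subtracted signal expressed as percent inhibition versus vehicle at 6-6.5 or 8-9 h, or as percent control AUC.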

[1] = read-out: CsgA ThT Assay (10 μM CsgA) % Control AUC at 1005 minutes, 25 μM (activity range), CsgA 10 μM, black plates, class symbol
[2] = read-out: CsgA ThT Assay (10 μM CsgA) % Control AUC at 1005 minutes, 25 μM, mean AUC as % of DMSO control, CsgA 10 μM, black plates
[3] = read-out: CsgA ThT Assay (10 μM CsgA) % Control AUC at 1005 minutes, 100 μM (activity range), CsgA 10 μM, black plates, class symbol
[4] = read-out: CsgA ThT Assay (10 μM CsgA) % Control AUC at 1005 minutes, 100 μM, mean AUC as % of DMSO control, CsgA 10 μM, black plates

T1 sequence (P28307 23-151): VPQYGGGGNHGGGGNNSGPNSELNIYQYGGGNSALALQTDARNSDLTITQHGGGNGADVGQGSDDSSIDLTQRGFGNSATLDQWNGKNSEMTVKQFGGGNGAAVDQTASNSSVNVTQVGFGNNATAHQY

| Compound | remaining activity at 25 µM [1] [%] | remaining activity at 25 µM [2] [%] | remaining activity at 100 µM [3] [%] | remaining activity at 100 µM [4] [%] |
| --- | --- | --- | --- | --- |
| CCCCCN1CC(C(=O)O)n2c(c(-c3cccc(C(F)(F)F)c3)c(Cc3cccc4ccccc34)cc2=O)S1(=O)=O (racemic) [Compound 025, 8-(naphthalen-1-ylmethyl)-6-oxo-2-pentyl-9-(3-(trifluoromethyl)phenyl)-3,4-dihydro-2H,6H-pyrido[1,2-e][1,2,5]thiadiazine-4-carboxylic acid 1,1-dioxide] | 31 to 60 | 49 | – | – |
| CCCN1CC(C(=O)O)n2c(c(-c3cccc(C(F)(F)F)c3)c(Cc3cccc4ccccc34)c(NC3CCCC3)c2=O)S1(=O)=O (stereo not shown) [Compound 126, 7-(cyclopentylamino)-8-(naphthalen-1-ylmethyl)-6-oxo-2-propyl-9-(3-(trifluoromethyl)phenyl)-3,4-dihydro-2H,6H-pyrido[1,2-e][1,2,5]thiadiazine-4-carboxylic acid 1,1-dioxide] | 31 to 60 | 36 | 31 to 60 | 40 |
| O=C(O)[C@@H]1CS(=O)(=O)c2c(-c3cccc(C(F)(F)F)c3)c(Cc3cccc4ccccc34)cc(=O)n21 (single isomer, unassigned) [Compound 010a, 7-(naphthalen-1-ylmethyl)-5-oxo-8-(3-(trifluoromethyl)phenyl)-2,3-dihydro-5H-thiazolo[3,2-a]pyridine-3-carboxylic acid 1,1-dioxide] | > 60 | 85 | 31 to 60 | 37 |
| Nc1c(Cc2cccc3ccccc23)c(-c2cccc(C(F)(F)F)c2)c2n(c1=O)C(C(=O)O)CS2 (racemic) [Compound 020, 6-amino-7-(naphthalen-1-ylmethyl)-5-oxo-8-(3-(trifluoromethyl)phenyl)-2,3-dihydro-5H-thiazolo[3,2-a]pyridine-3-carboxylic acid] | 11 to 31 | 18 | < 10 | 7 |
| NC(=O)CN1CC(C(=O)O)n2c(c(-c3cccc(C(F)(F)F)c3)c(Cc3cccc4ccccc34)cc2=O)S1(=O)=O (stereo not shown) [Compound 028, 2-(2-amino-2-oxoethyl)-8-(naphthalen-1-ylmethyl)-6-oxo-9-(3-(trifluoromethyl)phenyl)-3,4-dihydro-2H,6H-pyrido[1,2-e][1,2,5]thiadiazine-4-carboxylic acid 1,1-dioxide] | > 60 | 66 | 11 to 31 | 27 |
| COc1ccc(CN2C[C@@H](C(=O)O)n3c(c(-c4cccc(C(F)(F)F)c4)c(Cc4cccc5ccccc45)cc3=O)S2(=O)=O)cc1 (single isomer, unassigned) [Compound 026a] | 31 to 60 | 41 | – | – |
| O=C(O)C1CSc2c(-c3cccc(C(F)(F)F)c3)c(Cc3cccc4ccccc34)cc(=O)n21 (single isomer, unassigned) [Compound 011a, 7-(naphthalen-1-ylmethyl)-5-oxo-8-(3-(trifluoromethyl)phenyl)-2,3-dihydro-5H-thiazolo[3,2-a]pyridine-3-carboxylic acid] | 31 to 60 | 47 | 31 to 60 | 41 |
| O=C(O)C1C[S+]([O-])c2c(-c3cccc(C(F)(F)F)c3)c(Cc3cccc4ccccc34)cc(=O)n21 (racemic) [Compound 027b, 7-(naphthalen-1-ylmethyl)-5-oxo-8-(3-(trifluoromethyl)phenyl)-2,3-dihydro-5H-thiazolo[3,2-a]pyridine-3-carboxylic acid 1-oxide] | > 60 | 108 | > 60 | 74 |
